Our source for the selectivity ratio and IC50 values is ChEMBL document CHEMBL5329158 (RSC Med Chem, 2023).

In general, IC50 refers to the concentration at which inhibition is half-maximal.

A value given as a limit tells only on which side of the number the result lay.

Tested on in one series: not listed separately
The series can be described thus: Selectivity index, ratio of CC50 for cytotoxicity against mouse NCTC clone 929 cells assessed as inhibition of cell growth to IC50 for antileishmanial activity against Leishmania infantum MHOM/BR/1972/LD amastigotes infected in mouse Peritoneal macrophage cells assessed as inhibition of parasite growth. It is filed as toxicity, cell-based. Conditions: read-out: Ratio CC50/IC50; call rule not given here.
As for `C=CCc1ccc(Oc2cc(CC=C)cc(OC)c2OCCN2CCOCC2)c(OC)c1`, the selectivity ratio worked out at 6.6.

Take `COc1ccc(COc2c(OC)cc(CN3CCOCC3)cc2Oc2ccc(CN3CCOCC3)cc2OC)cc1`: the selectivity ratio amounted to 2.7.

On to `CCCc1cc(OC)c(OCc2ccc(OC)cc2)c(Oc2ccc(CN3CCOCC3)cc2OC)c1`, for which the selectivity ratio was 9.7.

As to `CCCc1cc(OC)c(OCc2ccc(OC)cc2)c(Oc2ccc(CN3CCCCC3)cc2OC)c1`, the selectivity ratio was found to be 3.9.

Consider `CCCc1ccc(Oc2cc(CN3CCOCC3)cc(OC)c2OCc2cc(OC)c(OC)c(OC)c2)c(OC)c1`, for which the selectivity ratio is above 7.6.

As to `CCCc1ccc(Oc2cc(CN3CCCCC3)cc(OC)c2OCc2ccc(OC)cc2)cc1`, the selectivity ratio was 7.6.

Turning to `C=CCc1cc(OC)c(OCc2ccc(OC)cc2)c(Oc2ccccc2OC)c1`, the selectivity ratio is above 8.3.

For `C=CCc1cc(OC)c(OC(C)=O)c(Oc2ccccc2OC)c1`, the selectivity ratio is above 6.1.

Take `CCCc1ccc(Oc2cc(CN3CCOCC3)cc(OC)c2OCc2ccc(OC)cc2)cc1`: the selectivity ratio is above 13.1.

As for `C=CCc1ccc(Oc2cc(CC=C)cc(OC)c2OCC(=O)N2CCCC2)c(OC)c1`, the selectivity ratio was determined as 2.6.

As to `C=CCc1cc(OC)c(OCc2ccc(OC)cc2)c(Oc2ccc(CN3CCOCC3)cc2OC)c1`, the selectivity ratio was above 20.6.

Regarding `CCCc1ccc(Oc2cc(CN3CCOCC3)cc(OC)c2OCc2ccc(C(F)(F)F)cc2)c(OC)c1`, the selectivity ratio was above 15.1.

For the compound `CCCc1ccc(Oc2cc(CN3CCOCC3)cc(OC)c2OCc2ccc(OC)cc2)c(OC)c1`, the selectivity ratio was above 12.2.

Take `C=CCc1ccc(Oc2cc(CC=C)cc(OC)c2OCCN2CCCC2)c(OC)c1`: the selectivity ratio was 6.

Regarding `CCCCCCCCCCCCCCCCOP(=O)([O-])OCC[N+](C)(C)C` [MILTEFOSINE], the selectivity ratio was 18.4.

Another series relates to Leishmania infantum. The experiment in a line: Antileishmanial activity against Leishmania infantum MHOM/BR/1972/LD amastigotes infected in mouse Peritoneal macrophage cells assessed as inhibition of parasite growth incubated for 96 hrs by light microscopic analysis. It is filed as functional, organism-based. Conditions: Leishmania infantum, MHOM/BR/1972/LD, Peritoneal macrophage, 96 h; read-out: IC50.
Consider `C=CCc1cc(OC)c(O)c(Oc2ccc(CN3CCOCC3)cc2OC)c1`, for which the IC50 is above 50 µM.

Turning to `CCCc1ccc(Oc2cc(CCC)cc(OC)c2OCc2ccc(OC)cc2)c(OC)c1`, the IC50 was above 50 µM.

On to `C=CCc1ccc(Oc2cc(CC=C)cc(OC)c2OCC(=O)N2CCOCC2)c(OC)c1`, for which the IC50 was above 50 µM.

As to `C=CCc1ccc(Oc2cc(CCC)cc(OC)c2OCc2ccc(OC)cc2)c(OC)c1`, the IC50 is above 50 µM.

As for `C=CCc1cc(OC)c(OC)c(Oc2ccccc2OC)c1`, the IC50 is above 50 µM.

As for `C=CCc1cc(OC)cc(Oc2ccc(CC=C)cc2OC)c1`, the IC50 was above 50 µM.

Consider `C=CCc1ccc(Oc2cccc(OC)c2O)c(OC)c1`, for which the IC50 is above 50 µM.

For the compound `C=CCc1ccc(Oc2cccc(OC)c2OC(C)=O)c(OC)c1`, the IC50 is above 50 µM.

Consider `C=CCc1cc(OC)c(OCc2ccc(OC)cc2)c(Oc2ccc(CN3CCCC3)cc2OC)c1`, for which the IC50 was above 50 µM.

Consider `C=CCc1ccc(Oc2cccc(OC)c2OC)c(OC)c1`, for which the IC50 was above 50 µM.

As to `C=CCc1cc(OC)c(O)c(Oc2ccc(CCC)cc2OC)c1`, the IC50 is above 50 µM.

Take `C=CCc1ccc(Oc2cc(CC=C)cc(OC)c2OCc2ccc(OC)cc2)c(OC)c1`: the IC50 was above 50 µM.

Turning to `C=CCc1cc(OC)c(OCc2ccc(OC)cc2)c(Oc2ccc(CCC)cc2OC)c1`, the IC50 is above 50 µM.

In the case of `C=CCc1cc(OC)c(O)c(Oc2ccc(CN3CCCC3)cc2OC)c1`, the IC50 is above 50 µM.

On to `C=CCc1cc(OC)c(O)c(Oc2ccccc2OC)c1`, for which the IC50 was above 50 µM.

Regarding `C=CCc1ccc(Oc2cc(CC=C)cc(OC)c2OCOC)c(OC)c1`, the IC50 is above 50 µM.

Take `C=CCc1cc(OC)c(OC)c(Oc2ccc(CCC)cc2OC)c1`: the IC50 was above 50 µM.

As to `C=CCc1ccc(Oc2cc(CCC)cc(OC)c2O)c(OC)c1`, the IC50 is above 50 µM.

Staying with this series, now noted: peritoneal macrophage.
For `CCCc1ccc(OCc2ccc(OC)cc2)c(Oc2ccc(CN3CCOCC3)cc2OC)c1`, the IC50 entry was “Not Active”.

On to `C=CCc1ccc(Oc2cc(CC=C)cc(OC)c2O)cc1`, for which the IC50 entry is reported as “Not Active”.

For the compound `C=CCc1ccc(Oc2cc(CC=C)ccc2OCc2ccc(OC)cc2)c(OC)c1`, the IC50 entry is recorded as “Not Active”.

As to `C=CCc1ccc(Oc2cccc(OC)c2OCc2ccc(OC)cc2)c(OC)c1`, the IC50 result is given as “Not Active”.

As for `C=CCc1ccc(Oc2cc(CC=C)cc(OC)c2OCc2ccc(OC)cc2)cc1`, the IC50 entry was “Not Active”.

For the compound `C=CCc1ccc(O)c(Oc2ccc(CC=C)cc2OC)c1`, the IC50 entry is “Not Active”.
